Values quoted from earlier work in patent publication US20130338198A1, “COMPOSITION FOR TREATING DERMATITIS AND ICHTHYOSIS, AND METHOD FOR TREATING DERMATITIS AND ICHTHYOSIS” (Skinvisible Pharmaceuticals, Inc., priority 2010, published 2013).

Settings: in vivo

Substance	dermal toxicity
Poly(vinylpyrrolidone/1-eicosene) [PVPE]	no demonstrable dermal toxicity
Poly(vinylpyrrolidone/1-hexadecene) [PVPH]	no demonstrable dermal toxicity
